Laboratory results: a melting point compilation (Tetko et al.; mined from patent text by program, amines drawn as free bases though some values may be those of a salt)

Compound	melting point [°C]
COc1ccc2c(c1)[C@@H](O)[C@H](CN1CCC3(CC1)C(=O)NCN3c1ccccc1)CC2 (relative stereo)	216 to 218
CCN1C(=O)CN=C(c2ccccc2F)c2cc(C(C)=O)ccc21	154 to 156
COc1cc(N)c(Cl)cc1C(=O)NCC1CCN(CCCCCSc2ccccc2)CC1	143 to 144
COC(=O)c1cc(-c2ccc3c(c2)CCO3)n[nH]c1=O	192 to 200
ON=c1ccccc2cnccc12	164 to 167
CCCCc1nc(SC)c(C(=O)O)n1Cc1ccc(-c2ccccc2S(=O)(=O)NC(=O)C(c2ccccc2)c2ccccc2)cc1	205
COc1cc2c(cn1)OCC21C(=O)Nc2ccccc21 (stereo not drawn)	231 to 232
CCCCCCC(C(=O)N[C@@H](CC(=O)O)C(=O)O)n1cnc2cc(-c3ccccc3-c3nn[nH]n3)ccc21 (stereo partly drawn)	190 to 195
CCCN(CCCCC12CC3CC(CC(C3)C1)C2)C(=O)NCCCc1ccncc1	110
CN1C(=O)CC(=O)N(C)c2ccccc21	240 to 242
CCCOc1cc(OCCC)c2c(C)c(CCO)c(=O)oc2c1	106 to 108
O=C(NC1CCCCC1)NS(=O)(=O)c1ccc(CCn2cnc3ccccc3c2=O)cc1	228 to 230
CC(C)CC(=O)Nc1c(C(=O)c2cccc(Cl)c2)[nH]c2cc(Cl)ccc12	185 to 186
Cc1noc(NS(=O)(=O)c2ccsc2C(=O)Nc2ccccc2)c1C	176
O=c1oc(-c2ccccc2)cc(O)c1C(SCc1ccccc1)c1ccccc1 (stereo not drawn)	189 to 191
Cn1cncc1C(N)(c1ccc(Cl)cc1)c1ccc2c(c1)C(c1cccc(Cl)c1)=NCc1nnnn1-2 (stereo not drawn)	218
Cc1ccc(C(=O)c2cc(-c3ccncc3)c(N3CCOCC3)s2)cc1	144 to 145
Nc1ccc(-c2scc3c2OCCO3)cc1	98.5 to 99
Nc1nc(Cn2c(-c3ccc(Oc4cncnc4)cc3)ccc2-c2ccccc2Cl)ccc1OCCO	78 to 81
OCCCCN1CCC(C(O)(c2ccc(F)cc2)c2ccc(F)cc2)CC1	130 to 131
O=c1[nH]c2ncc(-c3ccc(-c4ncc[nH]4)cc3)nc2n1CC1CCCCC1	349 to 351

Compound	melting point [°C]
CC(Nc1nc2ccc(Cl)cc2cc1C(=O)O)C(=O)O (stereo not drawn)	178 to 190
O=C(NC(Cc1ccc(OCc2cccc(F)c2)cc1)C(=O)O)c1cn2ccc(-c3ccc(Cl)cc3)cc2n1 (stereo not drawn)	248 to 250
O=C(O)c1cc(O)c(C(=O)c2ccc(Cl)cc2)c([N+](=O)[O-])c1	266 to 268
C=CCCCCCCCCCOc1ccc(-c2ccc(OCCCCCCCCCCCBr)cc2)cc1	93 to 94
CCSN(C)C(=O)Nc1ccc(C)c(Cl)c1	< 50
CCC(C)c1cc(Cl)cc(Cl)c1OCC(=O)N1CCSC1=S (stereo not drawn)	96
CCOC(=O)C(C)ON1CCNC1=Nc1c(Cl)cccc1Cl (stereo not drawn)	79 to 80
CCOC(=O)c1cn(C)c2cnc3cc(N4CCCC(C)(C)C4)c(F)cc3c2c1=O	198 to 200
Cn1nc(-c2cccc(N3Cc4cc(C(C)(C)C)ccc4C3=O)c2CO)cc(Nc2ccn(C3CNC3)n2)c1=O	202 to 204
Cn1nc(-c2ccccc2)c(S(=O)(=O)c2ccccc2)c1-c1ccccc1	135 to 141
COc1cc(C(=O)NNC(=O)c2occ(-c3ccccc3)c2-c2ccccc2)ccc1OCc1ccccc1	203 to 204
CCC(Oc1ccccc1Br)C(=O)O (stereo not drawn)	102
COc1ccc2c(c1)N(CCCCl)c1cccc(S(C)(=O)=O)c1S2	122 to 124
Cc1ncc(-c2ccccc2)c(-c2ccc3c(c2)NC(=O)CO3)n1	229
CC(C)(C)NCC(O)COc1cccc(C#N)c1 (stereo not drawn)	108 to 110
CC(C)(Oc1ccc(Cl)cc1)C(C)(O)c1cccnc1 (stereo not drawn)	140 to 141
CCOC(=O)CO/N=C(\C(=O)Sc1nc2ccccc2s1)c1cc[nH]n1	112 to 114
CC(Sc1nc(N)cc(C(F)(F)F)n1)c1cc2ccoc2cn1 (stereo not drawn)	180 to 182
CCCN(CCC)C(=O)n1cnc(S(=O)(=O)CC)n1	44 to 45
Nc1nc(-c2ccc(F)cc2)cc(-c2ccc(F)cc2)n1	207 to 210
CC1(C)OC(c2ccc(S(C)(=O)=O)cc2)=C(c2cccc(F)c2)C1=O	178 to 179

Compound	melting point [°C]
CCOc1cc(Cl)c2cc(F)c(F)c(F)c2n1	45
CC(C)(C)C1CCC(C(=O)Nc2ccncc2)CC1 (stereo not drawn)	150 to 151
COc1cc2c(cc1OC)CN(c1nc(Cl)nc3cc(OC)c(OC)cc13)CC2	183 to 186
O=C(Oc1ccccc1)N1CCC(Sc2ccncc2)CC1	102 to 104
O=C(O)c1csc2c1OC(c1ccccc1)(C1CCCCC1)CC2=O (stereo not drawn)	269 to 275
CSc1ncnn1C[C@]1(c2ccc(F)cc2)O[C@@H]1c1cccc(Cl)c1F (relative stereo)	88
CCCCCCCCCCc1cccc(C(=O)N(O)CCCC(=O)O)c1	77 to 79
COc1ccccc1SCC1SCCN1C(=S)CC(C)=O (stereo not drawn)	62 to 64
CCC1(CC)CN(C(C)(C)C)C(=O)C(CC)(CC)N1OC(=O)C(C)(C)C	58 to 60
CCNC(=O)c1ccc(Oc2c(C)n(CC(=O)O)c3ccc(F)cc23)cc1	220 to 222
COCC1CN(c2ccc(OCC3CCCC3=O)cc2)C(=O)O1 (stereo not drawn)	70
Cc1ccc(S(=O)(=O)NC[C@H]2CN3C(=O)C[C@H]3O2)cc1 (racemic)	123 to 125
CCCOc1ncc2c(=O)[nH]c(-c3ccccc3OCCC)nc2n1	157 to 158
CC(C)(C)[Si](C)(C)Oc1ccc2c(c1)C(=O)c1ccc(O[Si](C)(C)C(C)(C)C)cc1C2=O	131 to 133
NC(=O)c1[nH]c2cccnc2c1Sc1cccc(F)c1	235 to 237
CCCSC1(C(F)(F)F)C=NC(=O)Nc2ccc(Cl)cc21 (stereo not drawn)	156 to 157
CCc1cc(C(=O)c2ccccc2Cl)c(-n2c(CNC(=O)c3cc4ccccc4[nH]3)nnc2C23CC4CC(CC(C4)C2)C3)s1	283 to 286
CSc1c(C(Cc2ccccc2)C(=O)O)cc(C)c2c3ccccc3n(Cc3ccccc3)c12 (stereo not drawn)	199 to 200
CC(C)(C)OC(=O)N1CCN(c2ccc(-c3ccnc(Cl)n3)cn2)CC1	182 to 183
CC(CNC(=O)[C@@H]1CSC(=O)N1)O[N+](=O)[O-] (stereo partly drawn)	70 to 72

Further lines, results first:

melting point [°C]	Compound
142 to 145	COc1ccc(CONC(=O)c2nc(-c3ccc(Cl)c(OC)c3F)cc(N)c2Cl)cc1
138	COc1cccc(C(=O)NN=C2CCc3ccccc3C2)c1C
50 to 53	CSc1sc2ccccc2c1C=O
171 to 175	Nc1nc(Cl)cc(C#Cc2ccc3c(C(=O)Nc4cccc(C(F)(F)F)c4)cccc3c2)n1
117 to 118	CCOC(=O)c1cn(Cc2ccccc2)nc1OCc1ccc(OCc2nc(-c3ccco3)oc2C)c(OC)c1
211 to 212	O=C1NC(=O)C(c2cc(Cl)ccc2S(=O)(=O)Cl)N1 (stereo not drawn)
101 to 106	CC(C)(C)C(=O)N[Si](C)(C)C
118 to 121	CC(CCc1ccc(N(C)C)cc1)NCC(O)c1sccc1C(N)=O (stereo not drawn)
224	O=C(O)CN(C(=O)CN1C(=O)c2ccccc2C1=O)c1ccccc1
136 to 137	O=S(=O)(c1ccccc1)N1CCN(CC(O)CCl)CC1 (stereo not drawn)
227 to 228	CN(C)c1c(C#N)cnc2c(NC(=O)c3c(Cl)cccc3Cl)cccc12
131 to 133	Cc1cc2c(nc1C(O)c1ccc(C(F)(F)F)cc1)CCCCC2 (stereo not drawn)
107	CCc1ccc(Oc2ccc(N3CCN(c4cccc(C)c4)CC3)nn2)cc1
254 to 255	CC(=O)c1ccc2c(c1)c1cc(-c3ccc(Cl)cc3Cl)c(=O)n(C)c1n2C
88 to 89	NC(c1cc(-c2ccc(F)cc2)c(-c2ccc(F)cc2)[nH]1)(C(F)(F)F)C(F)(F)F
225 to 227	CCCc1ccc(-c2c3ccccc3c(-c3ccc(CCC)cc3)c3cc(Cl)ccc23)cc1
> 300	CCN1CCN(c2c(F)cc3c(=O)c(C(=O)O)cn(C4CC4)c3c2C#N)CC1
112	CCN1C(=O)[C@@H](NC(=O)OC(C)(C)C)COc2ccccc21

melting point [°C]	Compound
234 to 236	O=C(NCc1ccc(Cl)cc1)c1cnc2sc(Br)cc2c1O
57 to 59	CCOC(=O)CCCCCCCCCCSc1nc(-c2ccccc2)c(-c2ccccc2)[nH]1
85	Cc1ccc(N)c(C)c1CO
85.5 to 88.6	C=Cc1ccc2c(c1)CCN2C(=O)OC(C)(C)C
259 to 261	Nc1ncnc2c1ncn2C1CC(O)C2CC21 (stereo not drawn)
108	CCCCc1nc(SC)c(C(=O)OCC)n1Cc1ccccc1-c1cccc(S(=O)(=O)NC#N)c1
109 to 111	C=C(C)CCOc1c(-c2ccc(S(C)(=O)=O)cc2)cnn(-c2ccc(F)cc2)c1=O
199 to 201	CC(=O)Nn1cnn(C2CCc3ccccc3C2)c1=S (stereo not drawn)
121 to 123	CCOC(=O)CCc1cc(F)c(N2CCNCC2)nc1Nc1ccc(F)cc1F
246 to 247	CNNC(=O)Nc1ncnc2cc(OC)c(OC)cc12
168 to 169	O=C(NCc1ccc2c(c1)OCO2)c1ccc2n1Cc1ccccc1N(C(=O)COc1ccc(Cl)cc1)C2
123 to 125	N#CC1c2cc(OCc3ccccc3)cc(OCc3ccccc3)c2C=CN1C(=O)c1ccccc1 (stereo not drawn)
67 to 70	CC(O)c1ccc(C2(C(C)(C)C)OCCO2)cc1 (stereo not drawn)
114 to 115	COc1cc2oc(=O)c(CCOS(C)(=O)=O)c(C)c2c(OC)c1OC
289 to 290	Cn1cc(-c2cc3nccnc3[nH]2)c2cc(O)ccc21
115 to 118	Nc1noc(-c2ccc(C(F)(F)F)cc2)c1Cl
95 to 97	COc1ccccc1N1CCN(C(=O)[C@@H](Cc2ccccc2)NC(=O)OC(C)(C)C)CC1
163 to 164	CC(C)OCCNC(=O)c1n[nH]cc1NC(=O)c1ccccn1
